Assay in all cases: MIC, standard microtiter broth serial dilution test
What all share (format): cell-based

Experiment [1] has as its system S. aureus Smith ATCC 0329. Particulars: Staphylococcus aureus, ATCC0329.
The test system of experiment [2] is S. pneumoniae 0541. The conditions noted are these: Streptococcus pneumoniae.
In experiment [3] the test system is S. pyogenes 0542. The conditions noted are these: Streptococcus pyogenes.
The test system of experiment [4] is E. faecalis ATCC 0004. Particulars: Enterococcus faecalis, ATCC0004.
The subject of experiment [5] is H. influenzae ATCC 0529. The conditions noted are these: Haemophilus influenzae, ATCC0529.
Experiment [6] has as its system M. catarrhalis ATCC 0324. The conditions noted are these: Moraxella catarrhalis, ATCC0324.
Experiment [7] concerns erythromycin resistant strains of Streptococcus pneumoniae.
For experiment [8], the system named is erythromycin resistant strains of Streptococcus pyogenes.

Each structure is given as a SMILES string.

The source of these data is US20080255060A1, “Ester Linked Macrolides Useful For The Treatment of Microbial Infections” (priority 2004, published 2008).

In the case of `CC[C@H]1OC(=O)[C@H](C)[C@@H](OC2C[C@@](C)(OC)[C@@H](OC(=O)CCOCCOCCNc3cc4c5c(c3)c(=O)c(C(=O)O)cn5CCC4)[C@H](C)O2)[C@H](C)[C@@H](O[C@@H]2O[C@H](C)C[C@H](N(C)C)[C@H]2O)[C@](C)(O)C[C@@H](C)CN(C)[C@H](C)[C@@H](O)[C@]1(C)O` (stereo partly shown) [Example 32, 4″-O-(3-{2-[2-(6-Carboxy-7-oxo-2,3-dihydro-1H,7H-pyrido[3,2,1-ij]quinolin-9-ylamino)-ethoxy]-ethoxy}-propionyl)-azithromycin], the MIC in experiment [1] was no more than 1 µg/mL; in experiment [2] it was no more than 1 µg/mL; in experiment [3], no more than 1 µg/mL; in experiment [4], no more than 1 µg/mL; in experiment [5], no more than 2 µg/mL; in experiment [6], no more than 2 µg/mL. For the same compound, the MIC in experiment [7] and in experiment [8] was no more than 0.25 µg/mL each time.

In the case of `CC[C@H]1OC(=O)[C@H](C)[C@@H](O[C@H]2C[C@@](C)(OC)[C@@H](OC(=O)CCOCCOCCNc3cc4c5c(c3)c(=O)c(C(=O)O)cn5CCC4)[C@H](C)O2)[C@H](C)[C@@H](O[C@@H]2O[C@H](C)C[C@H](N(C)C)[C@H]2O)[C@](C)(OC)C[C@@H](C)C(=O)[C@H](C)[C@@H](O)[C@]1(C)O` [Example 33, 4″-O-(3-{2-[2-(6-Carboxy-7-oxo-2,3-dihydro-1H,7H-pyrido[3,2,1-ij]quinolin-9-ylamino)-ethoxy]-ethoxy}-propionyl)-6-O-methyl-erythromycin A], the MIC in experiment [1] is no more than 1 µg/mL; in experiment [2] it was no more than 1 µg/mL; in experiment [3] it was no more than 1 µg/mL; in experiment [4], no more than 1 µg/mL; in experiment [5], no more than 2 µg/mL; in experiment [6] it was no more than 2 µg/mL. For the same compound, the MIC in experiment [7] and in experiment [8] was no more than 0.25 µg/mL in each case.

Turning to `CC[C@H]1OC(=O)[C@H](C)[C@@H](O[C@H]2C[C@@](C)(OC)[C@@H](OC(=O)CCOCCOCCNc3cc4c(=O)c(C(=O)O)cn(C(C)C)c4cc3Cl)[C@H](C)O2)[C@H](C)[C@@H](O[C@@H]2O[C@H](C)C[C@H](N(C)C)[C@H]2O)[C@](C)(O)C[C@@H](C)CN(C)[C@H](C)[C@@H](O)[C@]1(C)O` [Example 31, 4″-O-(3-{2-[2-(3-carboxy-7-chloro-1-isopropyl-4-oxo-1,4-dihydro-quinoline-6-ylamino)-ethoxy]-ethoxy}-propionyl)-azithromycin], the MIC in experiment [1] is no more than 1 µg/mL; in experiment [2], no more than 1 µg/mL; in experiment [3], no more than 1 µg/mL; in experiment [4], no more than 1 µg/mL; in experiment [5] it was no more than 2 µg/mL; in experiment [6], no more than 2 µg/mL. The MIC in experiment [7] and in experiment [8] was no more than 0.25 µg/mL in each case.

Regarding `CC[C@H]1OC(=O)[C@H](C)[C@@H](O[C@H]2C[C@@](C)(OC)[C@@H](OC(=O)CCOCCOCCCc3ccc4c(c3)c(=O)c(C(=O)O)cn4CC)[C@H](C)O2)[C@H](C)[C@@H](OC2O[C@H](C)C[C@H](N(C)C)[C@H]2O)[C@](C)(O)C[C@@H](C)CN(C)[C@H](C)[C@@H](O)[C@]1(C)O` (stereo partly shown) [Example 49, 4″-O-(3-{2-[3-(3-carboxy-1-ethyl-4-oxo-1,4-dihydro-quinolin-6-yl)-propoxy]-ethoxy}-propionyl)-azithromycin], the MIC in experiment [1] was no more than 1 µg/mL; in experiment [2], no more than 1 µg/mL; in experiment [3], no more than 1 µg/mL; in experiment [4] it was no more than 1 µg/mL; in experiment [5], no more than 2 µg/mL; in experiment [6], no more than 2 µg/mL. The MIC in experiment [7] and in experiment [8] was no more than 0.25 µg/mL in each case.

For the compound `CC[C@H]1OC(=O)[C@H](C)[C@@H](O[C@H]2C[C@@](C)(OC)[C@@H](OC(=O)CCOCCOCCNc3ccc4c(c3)c(=O)c(C(=O)O)cn4C3CC3)[C@H](C)O2)[C@H](C)[C@@H](O[C@@H]2O[C@H](C)C[C@H](N(C)C)[C@H]2O)[C@](C)(O)C[C@@H](C)CN(C)[C@H](C)[C@@H](O)[C@]1(C)O` [Example 11, 4″-O-(3-{2-[2-(3-Carboxy-1-cyclopropyl-4-oxo-1,4-dihydro-quinolin-6-ylamino)-ethoxy]-ethoxy}-propionyl)-azithromycin], the MIC in experiment [1] was no more than 1 µg/mL; in experiment [2], no more than 1 µg/mL; in experiment [3], no more than 1 µg/mL; in experiment [4], no more than 1 µg/mL; in experiment [5], no more than 2 µg/mL; in experiment [6] it was no more than 2 µg/mL. In addition, the MIC in experiment [7] and in experiment [8] was no more than 0.25 µg/mL in each case.

On to `CC[C@H]1OC(=O)[C@H](C)[C@@H](O[C@H]2C[C@@](C)(OC)[C@@H](OC(=O)CCOCCOCCNc3cc4c(=O)c(C(=O)O)cn(C5CC5)c4cc3Cl)[C@H](C)O2)[C@H](C)[C@@H](O[C@@H]2O[C@H](C)C[C@H](N(C)C)[C@H]2O)[C@](C)(O)C[C@@H](C)CN(C)[C@H](C)[C@@H](O)[C@]1(C)O` [Example 8, 4″-O-(3-{2-[2-(3-Carboxy-7-chloro-1-cyclopropyl-4-oxo-1,4-dihydro-quinolin-6-ylamino)-ethoxy]-ethoxy}-propionyl)-azithromycin], for which the MIC in experiment [1] was no more than 1 µg/mL; in experiment [2], no more than 1 µg/mL; in experiment [3] it was no more than 1 µg/mL; in experiment [4] it was no more than 1 µg/mL; in experiment [5] it was no more than 2 µg/mL; in experiment [6] it was no more than 2 µg/mL. Also, the MIC in experiment [7] and in experiment [8] was no more than 0.25 µg/mL in each case.

With `CC[C@H]1OC(=O)[C@H](C)[C@@H](O[C@H]2C[C@@](C)(OC)[C@@H](OC(=O)CCOCCOCCNc3ccc4c(c3)c(=O)c(C(=O)O)cn4CC)[C@H](C)O2)[C@H](C)[C@@H](O[C@@H]2O[C@H](C)C[C@H](N(C)C)[C@H]2O)[C@](C)(O)C[C@@H](C)CN(C)[C@H](C)[C@@H](O)[C@]1(C)O` [Example 30, 4″-O-(3-{2-[2-(3-Carboxy-1-ethyl-4-oxo-1,4-dihydro-quinoline-6-ylamino)-ethoxy]-ethoxy}-propionyl)-azithromycin], the MIC is no more than 1 µg/mL in experiment [1]; no more than 1 µg/mL in experiment [2]; no more than 1 µg/mL in experiment [3]; no more than 1 µg/mL in experiment [4]; no more than 2 µg/mL in experiment [5]; no more than 2 µg/mL in experiment [6]. The MIC in experiment [7] and in experiment [8] was no more than 0.25 µg/mL each time.

As for `CC[C@H]1OC(=O)[C@H](C)[C@@H](O[C@H]2C[C@@](C)(OC)[C@@H](OC(=O)CCOCCOCCOc3cc4c(=O)c(C(=O)O)cn(C5CC5)c4cc3Cl)[C@H](C)O2)[C@H](C)[C@@H](O[C@@H]2O[C@H](C)C[C@H](N(C)C)[C@H]2O)[C@](C)(O)C[C@@H](C)CN(C)[C@H](C)[C@@H](O)[C@]1(C)O` [Example 55, 4″-O-(3-{2-[2-(3-Carboxy-7-chloro-1-cyclopropyl-4-oxo-1,4-dihydro-quinolin-6-yloxy)-ethoxy]-ethoxy}-propionyl)-azithromycin], the MIC is no more than 1 µg/mL in experiment [1]; no more than 1 µg/mL in experiment [2]; no more than 1 µg/mL in experiment [3]; no more than 1 µg/mL in experiment [4]; no more than 2 µg/mL in experiment [5]; no more than 2 µg/mL in experiment [6]. Further, the MIC in experiment [7] and in experiment [8] was no more than 0.25 µg/mL throughout.
